Experimental data reported in patent publication US8222487B2, “Application of ERF genes from Bupleurum kaoi” (National Tsing Hua University, priority 2009, dated 2012).

Columns and labels:
[1] = tested on: Psudomonas syringe; assay: Inhibition of bacteria in BkERF transformed B. kaoi cells; format: cell-based; conditions: 6 days after infection, transformed B. kaoi cells overexpressing the gene
Excerpt: (§1) The BkERF1, BkERF2.1, and BkERF2.2 genes are SEQ ID NO. 3, SEQ ID NO. 1 and SEQ ID NO. 2 respectively. The coding region of BkERFs was cloned into the multiple cloning site of the binary vector under the CaMV 35S promoter and the nopaline synthase termination sequence. The resulting vector was introduced into the Agrobacterium tumefaciens which was introduced into the cells of B. kaoi. The B. kaoi cells overexpressed BkERFs genes were observed using Western blot.
(§2) Bacteria suspension of a concentration about 10^8 cfu/ml was made from bacteria cultured 1-2 days with culture medium, and inoculated to 0.2 g BkERF transformed calli then grown in a 25° C. incubator. After six days, the calli was homogenized in 10 mM magnesium sulfate. Serial dilution of the bacteria was prepared and spread on nutrient agar plate containing 50 mg/L rifampicin. The plates were put in a 28° C. incubator for two days and then the numbers of bacteria were calculated.

[2] = tested on: Staphylococcus aureus; assay: as above; format: cell-based; conditions: 6 days after infection, transformed B. kaoi cells overexpressing the gene
Excerpt: as §1, §2

Row | Substance | Growth of bacteria in the transformed cells (bacterial numbers) [1] | Growth of bacteria in the transformed cells (bacterial numbers) [2]
1 | ERF2.2: B. kaoi ethylene response factor gene, ORF of 702 bp encoding 233 amino acids, overexpressed via binary vector | inhibited | inhibited
2 | ERF1: B. kaoi ethylene response factor gene, ORF of 633 bp encoding 210 amino acids, overexpressed via binary vector | inhibited | inhibited
3 | ERF2.1: B. kaoi ethylene response factor gene, ORF of 693 bp encoding 230 amino acids, overexpressed via binary vector | inhibited | inhibited
